Results published in US20050153932A1, “Controlled muscle relaxation” (priority 2003, published 2005).

Key:
[1] = test system: neuromuscular block in a patient; settings: endotracheal intubation; cited from earlier work
[2] = test system: M. adductor pollicis contractions; assay: Vecuronium-induced block of M. adductor pollicis contractions (TOF stimulation) and effect of Org 25969 in anaesthetised Rhesus monkeys; format: in vivo, Rhesus monkey; settings: for 0.50-0.90 TOF ratio interval / 25-75% recovery index / time to 25% recovery of T1 / time to 90% recovery of T1 / time to TOF ratio 0.90: spontaneous recovery
Protocol: • T1: first twitch: amplitude of the first response to TOF stimulation, expressed as percentage of control T1 (%). • T4/T1 ratio: the ratio of T4 over T1 (within one TOF stimulus) expressed as decimals.
Female Rhesus monkeys were starved overnight and sedated with 10 mg·kg^−1 ketamine i.m., followed by i.v. injection of 25 mg·kg^−1 pentobarbitone sodium and subsequent infusion of 5-10 mg·kg^−1hr^−1. The animals were intubated and ventilated with a mixture of oxygen and nitrous oxide (2:3), using a ventilator. The expired CO2 level was measured using a capnograph. The tidal volume was adjusted to obtain a CO2 level of approximately 4.5%. Oxygen saturation was measured via a probe on the earlobe using a pulse oxymeter. Blood pressure was measured non-invasively with a cuff placed on the tail. The ECG was recorded and heart rate was measured. Rectal temperature was measured and body temperature was kept at 37-38° C. using a heating blanket. The right hand and right arm of the animal were fixed to a frame using surgical tape. The thumb was connected to a force transducer. A pre-load of 200-500 mN was applied. Two needle electrode were placed near the N. ulnaris and the nerve was stimulated with train-of-four pulses (pulse duration: 2 ms, train-frequency: 0.07 Hz). At the end of the experiment, the animals were allowed to recover from anesthesia. Appropriate recovery care was given to all animals. Two groups of monkeys were used to assess the reversal effects of Org 25969 against the neuromuscular blocking agents rocuronium (Esmeron®/Zemuron®) and vecuronium (Norcuron®). In the first group, animals initially received an intravenous bolus injection of a 1×ED90 dose of rocuronium bromide to induce neuromuscular block, followed by spontaneous recovery of the twitches. After complete recovery of the twitches, each group received a second and larger 5×ED90 dose of rocuronium followed by spontaneous recovery in one subgroup, whereas the other subgroup received an intravenous bolus dose of 1150 nmol·kg^−1 Org 25969 as soon as all twitches had disappeared. In the vecuronium groups of animals, the same protocol was used, but rocuronium was replaced by vecuronium. Rocuronium bromide and vecuronium bromide were dissolved in a citric acid/phosphate/mannitol buffer (pH 4.0). Org 25969 was dissolved in saline.

[3] = 5× ED90 vecuronium, spontaneous recovery subgroup

| Structure (SMILES) | duration of action [1] [min] | onset [1] [min] | onset time ([2]; 1× ED90 vecuronium) [min] | 0.50-0.90 TOF ratio interval ([2]; 1× ED90 vecuronium) [min] | 25-75% recovery index ([2]; 1× ED90 vecuronium) [min] | time to 25% recovery of T1 ([2]; 1× ED90 vecuronium) [min] | time to 90% recovery of T1 ([2]; 1× ED90 vecuronium) [min] | time to TOF ratio 0.90 ([2]; 1× ED90 vecuronium) [min] | block ([2]; 1× ED90 vecuronium, Mean ± SEM, n = 4) [%] | 0.50-0.90 TOF ratio interval ([2]; 5× ED90 vecuronium) [min] | 25-75% recovery index ([2]; 5× ED90 vecuronium) [min] | time to 25% recovery of T1 ([2]; 5× ED90 vecuronium) [min] | time to 90% recovery of T1 ([2]; 5× ED90 vecuronium) [min] | time to TOF ratio 0.90 ([2]; 5× ED90 vecuronium) [min] | block [2, 3] [%] | onset time [2, 3] [min] |
| --- | --- | --- | --- | --- | --- | --- | --- | --- | --- | --- | --- | --- | --- | --- | --- | --- |
| C[N+](C)(C)CCOC(=O)CCC(=O)OCC[N+](C)(C)C [suxamethonium] | 5 to 8 | ~1 |  |  |  |  |  |  |  |  |  |  |  |  |  |  |
| CC(=O)O[C@H]1C[C@@H]2CC[C@@H]3[C@H](CC[C@@]4(C)[C@H]3C[C@H]([N+]3(C)CCCCC3)[C@@H]4OC(C)=O)[C@@]2(C)C[C@@H]1N1CCCCC1 [vecuronium, vecuronium bromide] |  |  | 4.3 ± 0.6 | 4.9 ± 0.5 | 5.4 ± 0.8 | 8.6 ± 1.0 | 18.1 ± 1.9 | 17.2 ± 1.6 | 91.5 ± 1.7 | 11.8 ± 1.3 | 9.6 ± 2.0 | 28.6 ± 2.8 | 44.0 ± 4.6 | 49.0 ± 4.7 | 100.0 ± 0.0 | 1.0 ± 0.1 |
